In patent US9540392B2, “Thienopyrimidines” (BAYER PHARMA AKTIENGESELLSCHAFT, priority 2012, dated 2017):

The compounds below were run against T1, human full-length MKNK1 (Homo sapiens, UniProt Q9BUB5, T385D) (assay: MKNK1 kinase high ATP assay (TR-FRET)). Conditions: 2 mM ATP, after preincubation with MKNK1; read-out: MKNK1 IC50 (MKNK1 high ATP).
T1 construct: GST (N); purchased Carna Biosciences 02-145; host or cells: insect cells (baculovirus expression system)
Format: biochemical
Procedure, shortened: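 Compound was preincubated 15 min at 22° C. with MKNK1 in 50 mM HEPES pH 7.5, 5 mM MgCl2, 1.0 mM DTT, then the reaction ran 30 min at 22° C. with 2 mM ATP and 0.06 μM biotinylated peptide (final).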

T1 sequence (Q9BUB5 1-424 isoform Q9BUB5-2 T344D): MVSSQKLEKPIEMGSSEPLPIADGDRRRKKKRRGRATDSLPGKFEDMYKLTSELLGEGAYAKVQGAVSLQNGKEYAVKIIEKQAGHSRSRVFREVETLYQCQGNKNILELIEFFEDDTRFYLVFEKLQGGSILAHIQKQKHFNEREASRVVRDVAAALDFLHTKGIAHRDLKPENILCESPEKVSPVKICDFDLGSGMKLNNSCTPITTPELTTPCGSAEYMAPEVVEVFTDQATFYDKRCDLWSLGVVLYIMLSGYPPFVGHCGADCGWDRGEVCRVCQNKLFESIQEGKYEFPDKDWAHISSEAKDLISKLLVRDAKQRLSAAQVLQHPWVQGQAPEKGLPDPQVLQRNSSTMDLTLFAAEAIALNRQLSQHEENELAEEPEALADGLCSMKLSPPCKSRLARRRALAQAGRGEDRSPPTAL

| IC50 [nM] | Compound |
| --- | --- |
| 19.8 | COc1cc2[nH]ncc2cc1Nc1ncnc2sc3c(c12)CCC(C(=O)N1CC(OC(=O)N(C)C)C1)C3 (racemic) [Example 275, (RS)-1-({4-[(6-Methoxy-1H-indazol-5-yl)amino]-5,6,7,8-tetrahydro[1]benzothieno[2,3-d]pyrimidin-7-yl}carbonyl)azetidin-3-yl dimethylcarbamate] |
| 11.7 | O=C(C1CCc2c(sc3ncnc(Nc4ccc5[nH]ncc5c4)c23)C1)N1CCC(O)CC1 (racemic) [Example 85, (RS)-(4-hydroxypiperidin-1-yl)[4-(1H-indazol-5-ylamino)-5,6,7,8-tetrahydro[1]benzothieno[2,3-d]pyrimidin-7-yl]methanone] |
| 2 | COc1cccc(CNC(=O)C2CCc3c(sc4ncnc(Nc5ccc6[nH]ncc6c5)c34)C2)c1 (stereo not drawn) [Example 19, 4-(1H-indazol-5-ylamino)-N-(3-methoxybenzyl)-5,6,7,8-tetrahydro[1] benzothieno [2,3-d]pyrimidine-7-carboxamide] |
| 15 | O=C(C1CCc2c(sc3ncnc(Nc4ccc5[nH]ncc5c4)c23)C1)N1CCCC1 (stereo not drawn) [Example 51, [4-(1H-Indazol-5-ylamino)-5,6,7,8-tetrahydro[1]benzothieno [2,3-d]pyrimidin-7-yl](pyrrolidin-1-yl)methanone] |
| 5 | O=C(NCC(F)(F)F)C1CCc2c(sc3ncnc(Nc4ccc5[nH]ncc5c4)c23)C1 (stereo not drawn) [Example 33, 4-(1H-Indazol-5-ylamino)-N-(2,2,2-trifluoroethyl)-5,6,7,8-tetrahydro[1] benzothieno [2,3-d]pyrimidine-7-carboxamide] |
| 4 | O=C(NCc1ccncc1)C1CCc2c(sc3ncnc(Nc4ccc5[nH]ncc5c4)c23)C1 (stereo not drawn) [Example 29, 4-(1H-Indazol-5-ylamino)-N-(pyridin-4-ylmethyl)-5,6,7,8-tetrahydro[1] benzothieno [2,3-d]pyrimidine-7-carboxamide] |
| 11 | CN1CCN(C(=O)C2CCc3c(sc4ncnc(Nc5ccc6[nH]ncc6c5)c34)C2)CC1 (stereo not drawn) [Example 8, [4-(1H-Indazol-5-ylamino)-5,6,7,8-tetrahydro[1]benzothieno[2,3-d]pyrimidin-7-yl](4-methylpiperazin-1-yl)methanone] |
| 1.5 | CCOc1cc2[nH]ncc2cc1Nc1ncnc2sc3c(c12)CCC(C(=O)N1CCC1)C3 (racemic) [Example 223, (RS)-Azetidin-1-yl{4-[(6-ethoxy-1H-indazol-5-yl)amino]-5,6,7,8-tetrahydro[1]benzothieno[2,3-d]pyrimidin-7-yl}methanone] |
| 0.4 | CCOc1cc2[nH]ncc2cc1Nc1ncnc2sc3c(c12)CCC(C(=O)N(C)CCNC(=O)OC(C)(C)C)C3 (racemic) [Example 268, (RS)-tert-Butyl {2-[({4-[(6-ethoxy-1H-indazol-5-yl)amino]-5,6,7,8-tetrahydro[1]benzothieno[2,3-d]pyrimidin-7-yl}carbonyl)(methyl)amino]ethyl}carbamate] |
| 17.4 | CC(=O)N1CCN(CCNC(=O)C2CCc3c(sc4ncnc(Nc5ccc6[nH]ncc6c5)c34)C2)CC1 (racemic) [Example 168, (RS)-N-[2-(4-acetylpiperazin-1-yl)ethyl]-4-(1H-indazol-5-ylamino)-5,6,7,8-tetrahydro[1]benzothieno[2,3-d]pyrimidine-7-carboxamide] |
| 16.8 | CC1CCN(C(=O)C2CCc3c(sc4ncnc(Nc5ccc6[nH]ncc6c5)c34)C2)CC1 (racemic) [Example 105, (RS)-[4-(1H-indazol-5-ylamino)-5,6,7,8-tetrahydro[1]benzothieno[2,3-d]pyrimidin-7-yl](4-methylpiperidin-1-yl)methanone] |
| 7.9 | CN1CCN(C(=O)C2CCc3c(sc4ncnc(Nc5ccc6[nH]ncc6c5)c34)C2)CC1CCO (racemic) [Example 197, (RS)-[3-(2-hydroxyethyl)-4-methylpiperazin-1-yl][4-(1H-indazol-5-ylamino)-5,6,7,8-tetrahydro[1]benzothieno[2,3-d]pyrimidin-7-yl]methanone] |
| 0.2 | COc1cc2[nH]ncc2cc1Nc1ncnc2sc3c(c12)CCC(C(=O)N1[C@H](C)CC[C@H]1C)C3 (mixture of isomers) [Example 178, [(2R,5R)-2,5-Dimethylpyrrolidin-1-yl]{(7RS)-4-[(6-methoxy-1H-indazol-5-yl)amino]-5,6,7,8-tetrahydro[1]benzothieno[2,3-d]pyrimidin-7-yl}methanone] |
| 13 | O=C(NCCCN1CCCC1=O)C1CCc2c(sc3ncnc(Nc4ccc5[nH]ncc5c4)c23)C1 (stereo not drawn) [Example 49, 4-(1H-Indazol-5-ylamino)-N-[3-(2-oxopyrrolidin-1-yl)propyl]-5,6,7,8-tetrahydro[1] benzothieno [2,3-d]pyrimidine-7-carboxamide] |
| 5.1 | O=C(NCc1cccnc1)C1CCc2c(sc3ncnc(Nc4ccc5[nH]ncc5c4)c23)C1 (racemic) [Example 76, (RS)-4-(1H-Indazol-5-ylamino)-N-(pyridin-3-ylmethyl)-5,6,7,8-tetrahydro[1]benzothieno[2,3-d]pyrimidine-7-carboxamide] |
| 6 | CC(C)CNC(=O)C1CCc2c(sc3ncnc(Nc4ccc5[nH]ncc5c4)c23)C1 (stereo not drawn) [Example 39, 4-(1H-Indazol-5-ylamino)-N-(2-methylpropyl)-5,6,7,8-tetrahydro[1] benzothieno [2,3-d]pyrimidine-7-carboxamide] |
| 12.4 | Cn1ccc(NC(=O)C2CCc3c(sc4ncnc(Nc5ccc6[nH]ncc6c5)c34)C2)n1 (racemic) [Example 140, (RS)-4-(1H-indazol-5-ylamino)-N-(1-methyl-1H-pyrazol-3-yl)-5,6,7,8-tetrahydro[1]benzothieno[2,3-d]pyrimidine-7-carboxamide] |
| 0.3 | CCOc1cc2[nH]ncc2cc1Nc1ncnc2sc3c(c12)CCC(C(=O)N1CCN(CC2CC2)CC1)C3 (racemic) [Example 247, (RS)-[4-(Cyclopropylmethyl)piperazin-1-yl]{4-[(6-ethoxy-1H-indazol-5-yl)amino]-5,6,7,8-tetrahydro[1]benzothieno[2,3-d]pyrimidin-7-yl}methanone] |
| 1 | CC(C)Oc1cc2[nH]ncc2cc1Nc1ncnc2sc3c(c12)CCC(C(=O)N1CC2(COC2)C1)C3 (racemic) [Example 206, (RS)-2-Oxa-6-azaspiro[3.3]hept-6-yl(4-{[6-(propan-2-yloxy)-1H-indazol-5-yl]amino}-5,6,7,8-tetrahydro[1]benzothieno[2,3-d]pyrimidin-7-yl)methanone] |
| 14 | COCCNC(=O)C1CCc2c(sc3ncnc(Nc4ccc5[nH]ncc5c4)c23)C1 (stereo not drawn) [Example 50, 4-(1H-Indazol-5-ylamino)-N-(2-methoxyethyl)-5,6,7,8-tetrahydro[1] benzothieno [2,3-d]pyrimidine-7-carboxamide] |
| 0.7 | CCOc1cc2[nH]ncc2cc1Nc1ncnc2sc3c(c12)CCC(C(=O)N(C)CC)C3 (racemic) [Example 229, (RS)-4-[(6-Ethoxy-1H-indazol-5-yl)amino]-N-ethyl-N-methyl-5,6,7,8-tetrahydro[1]benzothieno[2,3-d]pyrimidine-7-carboxamide] |
| 24.1 | O=C(Nc1cc[nH]n1)C1CCc2c(sc3ncnc(Nc4ccc5[nH]ncc5c4)c23)C1 (racemic) [Example 89, (RS)-4-(1H-indazol-5-ylamino)-N-(1H-pyrazol-3-yl)-5,6,7,8-tetrahydro[1]benzothieno[2,3-d]pyrimidine-7-carboxamide] |
| 0.4 | CCOc1cc2[nH]ncc2cc1Nc1ncnc2sc3c(c12)CCC(C(=O)N1CCCC(C#N)C1)C3 (racemic) [Example 241, (RS)-1-({4-[(6-Ethoxy-1H-indazol-5-yl)amino]-5,6,7,8-tetrahydro[1]benzothieno[2,3-d]pyrimidin-7-yl}carbonyl)piperidine-3-carbonitrile] |
| 6 | O=C(NCCc1ccncc1)C1CCc2c(sc3ncnc(Nc4ccc5[nH]ncc5c4)c23)C1 (stereo not drawn) [Example 36, 4-(1H-Indazol-5-ylamino)-N-[2-(pyridin-4-yl)ethyl]-5,6,7,8-tetrahydro[1] benzothieno [2,3-d]pyrimidine-7-carboxamide] |
| 0.3 | CCOc1cc2[nH]ncc2cc1Nc1ncnc2sc3c(c12)CCC(C(=O)N(C)CCO)C3 (racemic) [Example 225, (RS)-4-[(6-Ethoxy-1H-indazol-5-yl)amino]-N-(2-hydroxyethyl)-N-methyl-5,6,7,8-tetrahydro[1]benzothieno[2,3-d]pyrimidine-7-carboxamide] |
| 14.7 | CCN(CC)C(=O)C1CCc2c(sc3ncnc(Nc4ccc5[nH]ncc5c4)c23)C1 (racemic) [Example 83, (RS)-N,N-diethyl-4-(1H-indazol-5-ylamino)-5,6,7,8-tetrahydro[1]benzothieno[2,3-d]pyrimidine-7-carboxamide] |
| 9 | CCOC(=O)C1CCc2c(sc3ncnc(Nc4cc5cn[nH]c5cc4Cl)c23)C1 (stereo not drawn) [Example 53, Ethyl 4-[(6-chloro-1H-indazol-5-yl)amino]-5,6,7,8-tetrahydro[1]benzothieno[2,3-d]pyrimidine-7-carboxylate] |
| 0.6 | CC(C)Oc1cc2[nH]ncc2cc1Nc1ncnc2sc3c(c12)CCC(C(=O)N1[C@H](C)CC[C@H]1C)C3 (mixture of isomers) [Example 227, [(2R,5R)-2,5-Dimethylpyrrolidin-1-yl]{(7RS)-4-[(6-isopropoxy-1H-indazol-5-yl)amino]-5,6,7,8-tetrahydro[1]benzothieno[2,3-d]pyrimidin-7-yl}methanone] |
| 0.7 | CCN(C)C(=O)C1CCc2c(sc3ncnc(Nc4cc5cn[nH]c5cc4OC)c23)C1 (racemic) [Example 179, (RS)—N-Ethyl-4-[(6-methoxy-1H-indazol-5-yl)amino]-N-methyl-5,6,7,8-tetrahydro[1]benzothieno[2,3-d]pyrimidine-7-carboxamide] |
| 10.3 | O=C(C1CCc2c(sc3ncnc(Nc4ccc5[nH]ncc5c4)c23)C1)N1CCC(CO)CC1 (racemic) [Example 132, (RS)-[4-(hydroxymethyl)piperidin-1-yl][4-(1H-indazol-5-ylamino)-5,6,7,8-tetrahydro[1]benzothieno[2,3-d]pyrimidin-7-yl]methanone] |
